Experimental data from US9284292B2, “Sialochimeric compounds” (THERAPICON S.R.L., priority 2009, dated 2016).

Columns and labels:
[1] = system: influenza virus B (B/Parma/1/07); assay: microbe, parasite or virus in culture; assay type: cell-based; settings: study I; for EC50: 72 h, MDCK cells, 50% plaque reduction vs control, 3 days
[2] = system: influenza virus A/H1N1 (A/New Caledonia/20/99); assay: organism not typed; assay type: cell-based, influenza virus type A; settings: MDCK, 72 h, read-out: EC50 vs A/H1N1
[3] = system: influenza virus A/H1N1 (A/New Caledonia/20/1999); assay type: cell-based, influenza virus type A
[4] = system: influenza virus A/H3N2 (A/Panama/2007/99); assay: organism not typed; assay type: cell-based, influenza virus type A; settings: MDCK, 72 h, read-out: EC50 vs A/H3N2
[5] = in vivo; cited from earlier work

SMILES | EC50 [1] | antiviral activity versus virus type A relative to virus type B ([1]; higher versus type A than type B) | EC50 [2] | EC50 [3] | EC50 [4] | absorbed by oral route [5]
CCOC(=O)C1=CC(OC(CC)CC)C(NC(C)=O)C(NC2(C(=O)O)CC(O)C(NC(C)=O)C(CNC34CC5CC(CC(C5)C3)C4)O2)C1 (stereo not drawn) [THE 08/01, Amantadine-C7-Neu5Ac—C16H28N2O4] | 126 µM | 10 folds | 9.9 µM | 16 µM | 15.4 µM | –
CC(=O)NC1C(O)CC(NC(=N)NC2C=C(C(=O)O)OC(C(O)C(O)CO)C2NC(C)=O)(C(=O)O)OC1CNC12CC3CC(CC(C3)C1)C2 (stereo not drawn) [THE 10/01, Amantadine-C7-Neu5Ac—C12H20N4O7] | 99.5 µM | – | 11.7 µM | – | 18.3 µM | –
CC(=O)N[C@H]1[C@H]([C@H](O)[C@H](O)CO)OC(C(=O)O)=C[C@@H]1N=C(N)N [zanamivir] | – | – | – | – | – | about 2%
